# Results reported in patent publication US6087355A, “Cephalosporin antibiotics” (Microcide Pharmaceuticals, Inc., priority 1996, dated 2000).
# Structures can show the parent of a compound that is named as a salt. Where two headings read alike, the source gives them in different places.
# Tests used:
# [1] = tested on: S. aureus Col(Meth^R)(lac^-); experiment: In vitro MIC, agar dilution; type: cell-based; conditions: Staphylococcus aureus, read-out: minimum inhibitory concentration (MIC)
# Protocol: (§1) The compounds of the invention were evaluated against several β-lactamresistant (for example methicillin-resistant, vancomycin resistant, and/or ampicillin-resistant) bacteria strains by determining the minimum inhibitory concentration (MIC, μg/ml) of each compound with respect to each strain. The MIC, the lowest concentration of antibiotic which inhibits growth of the test organism, was determined by the agar dilution method.
# (§2) To determine the MIC for bacterial isolates, the test compound was incorporated in a series of two-fold dilutions into liquified Mueller-Hinton agar. Upon solidification, a number of different bacterial strains were spot inoculated with a replicating device onto the agar surface.
# (§3) Aliquots of antimicrobial agents were prepared in phosphate buffered saline (PBS) at pH 7.2. Tween 20 or DMSO was used as a solubilizing vehicle as needed. Standard methods of vortexing, sonicating and gentle heat were used to facilitate solubilizing the test agent. […] A 1.28 mg/mL stock solution was used with a subsequent highest working concentration of 128 μg/mL. Serial two-fold dilutions were done through ≤0.25 μg/mL. Each drug level was tested in duplicate. Two-fold drug dilutions were done in sterile 50 mL tubes with a final drug volume of 5 mL. Upon the addition of 45 mL of molten agar, a 10-fold dilution resulted. Two, 25 mL. plates were then poured into 15×150 mm square Petri plates with grids and allowed to harden.
# (§4) A control plate with a reference drug, either cefotaxime, vancomycin or imipenem, was used as the positive growth control. Stock concentrations of reference antibiotics were prepared and frozen at -80° C. […] All test plates were used within 24 hours of preparation.
# (§5) Satisfactory results were obtained where the inoculum contained about 10^4 colony forming units (cfu)±0.5 logs. Starting with pure cultures of the test isolates on agar plates, a few isolated colonies were transferred to a tube of nutrient broth and allowed to grow 4-6 hours at 35-36° C. to reach log-phase growth. Dropwise addition of the broth culture to PBS was done to match a 0.5 McFarland turbidity standard equal to 10^8 cfu/mL. This was further diluted ten-fold in PBS to reach a working inoculum concentration of 10^7 cfu/mL. When 1 μL of the working inoculum was applied to the agar surface a concentration of about 10^4 cfu per spot was obtained.
# (§6) Disposable sterile 1 μL loops were used to inoculate test plates, with each isolate in a designated grid on the agar plate. An alternate method of inoculation involved the use of a replica plater, a device with 48 steel pins allowing the simultaneous inoculation of multiple isolates. After the spots had dried, the plates were incubated at 35-36° C. for 16-20 hours. Endpoints were assessed as the minimum inhibitory concentration (MIC) of antimicrobial agent.
# The S. aureus Col strain is a high-level PBP2a producer, whereas S. aureus Col 8A, its isogenic partner, lacks PBP2a.
# E. faecalis VanB(Van^R) = experiment: In vitro MIC, agar dilution; type: cell-based; conditions: Enterococcus faecalis, read-out: minimum inhibitory concentration (MIC)
# Protocol: as §1, §2, §3, §4, §5, §6
# [2] = tested on: S. haemolyticus 05(Meth^R); experiment: In vitro MIC, agar dilution; type: cell-based; conditions: Staphylococcus haemolyticus, read-out: minimum inhibitory concentration (MIC)
# Protocol: as §1, §2, §3, §4, §5, §6
# E. coli ATCC 25992 = experiment: In vitro MIC, agar dilution; type: cell-based; conditions: Escherichia coli, ATCC25992, read-out: minimum inhibitory concentration (MIC)
# Protocol: as §1, §2, §3, §4, §5, §6
# P. aeruginosa ATCC 27853 = experiment: In vitro MIC, agar dilution; type: cell-based; conditions: Pseudomonas aeruginosa, ATCC27853, read-out: minimum inhibitory concentration (MIC)
# Protocol: as §1, §2, §3, §4, §5, §6
# E. faecium ATCC 35667 = experiment: In vitro MIC, agar dilution; type: cell-based; conditions: Enterococcus faecium, ATCC35667, read-out: minimum inhibitory concentration (MIC)
# Protocol: as §1, §2, §3, §4, §5, §6
# [3] = tested on: S. aureus 76(Meth^R)(lac^+); experiment: In vitro MIC, agar dilution; type: cell-based; conditions: Staphylococcus aureus, read-out: minimum inhibitory concentration (MIC)
# Protocol: as §1, §2, §3, §4, §5, §6
# [4] = tested on: S. aureus ATCC 13709(Meth^S); experiment: In vitro MIC, agar dilution; type: cell-based; conditions: Staphylococcus aureus, ATCC13709, S. aureus ATCC 13709(Meth^S); read-out: minimum inhibitory concentration (MIC)
# Protocol: as §1, §2, §3, §4, §5, §6
# E. faecalis ATCC 29212 = experiment: In vitro MIC, agar dilution; type: cell-based; conditions: Enterococcus faecalis, ATCC29212, read-out: minimum inhibitory concentration (MIC)
# Protocol: as §1, §2, §3, §4, §5, §6
# [5] = tested on: S. aureus ATCC 33593(Meth^R); experiment: In vitro MIC, agar dilution; type: cell-based; conditions: Staphylococcus aureus, ATCC33593, read-out: minimum inhibitory concentration (MIC)
# Protocol: as §1, §2, §3, §4, §5, §6
# E. faecium VanA(Van^R) = experiment: In vitro MIC, agar dilution; type: cell-based; conditions: Enterococcus faecium, read-out: minimum inhibitory concentration (MIC)
# Protocol: as §1, §2, §3, §4, §5, §6
# [6] = tested on: S. aureus Spain #356(Meth^R); experiment: In vitro MIC, agar dilution; type: cell-based; conditions: Staphylococcus aureus, read-out: minimum inhibitory concentration (MIC)
# Protocol: as §1, §2, §3, §4, §5, §6
# [7] = tested on: S. aureus PC1(Meth^S)(lac^+); experiment: In vitro MIC, agar dilution; type: cell-based; conditions: Staphylococcus aureus, read-out: minimum inhibitory concentration (MIC)
# Protocol: as §1, §2, §3, §4, §5, §6
# E. faecium A491(Amp^R) = experiment: In vitro MIC, agar dilution; type: cell-based; conditions: Enterococcus faecium, read-out: minimum inhibitory concentration (MIC)
# Protocol: as §1, §2, §3, §4, §5, §6
# S. aureus ATCC 29213 = experiment: In vitro MIC, agar dilution; type: cell-based; conditions: Staphylococcus aureus, ATCC29213, read-out: minimum inhibitory concentration (MIC)
# Protocol: as §1, §2, §3, §4, §5, §6
# [8] = tested on: S. aureus strain ATCC 13709 (methicillin-susceptible); experiment: Murine model for lethal bacteremic peritonitis; type: in vivo, female Swiss-Webster mice; conditions: Staphylococcus aureus, 72 h
# Protocol: Groups of 5 female Swiss-Webster mice (Simonsen, Gilroy, Calif.) each are challenged by the intraperitoneal (IP) route with tenfold increments of a bacterial inoculum. This permits calculation of the mean lethal dose (LD50) and the LD100. For preliminary evaluation of a new antibiotic, mice are challenged IP with an LD100 titer of bacteria. In two equal doses administered at the time of bacterial challenge and 2 hours later, groups of 10 mice each are treated subcutaneously with two-fold increments of the test drug and an antibiotic of known efficacy in mice and humans (i.e., positive control). Mice are observed for 72 h. Those alive at 72 h are considered long term survivors. The total drug dose in mg/kg that protects 50% of mice in a group from death is termed the mean protective dose (PD50). PD50 s are similarly determined for several pathogens. The quantitative endpoints for the new drug are then compared with those obtained with reference antibiotics.
# Six ten-fold dilutions of inoculum suspended in 0.5 mL of sterilized 7% hog gastric mucin (Sigma) are injected IP in groups of 5 mice each. A control group of 5 mice receive mucin alone. Mice are observed for 72 h. Those alive at 72 h are considered long term survivors. The mean lethal dose (LD50) and 100% lethal dose (LD100) are determined by the probit test.
# For antibiotic efficacy studies, mice are challenged IP with bacterial titers that will afford an LD100 for the test strain. In two equal doses administered at the time of bacterial challenge and 2 hours later, groups of 10 mice each are treated by the subcutaneous route (SC) with twofold increments of the test antibiotic; another group is treated similarly with a reference antibiotic of known efficacy in animals and man. Drug doses can range from 0.01 to 512 mg/kg. If the drug is poorly soluble, Tween 20 or propylene glycol will be employed to solubilize the drug. Animals are observed for 72 h. The 50% protective dose (PD50) is calculated in mg/kg by the probit method. The PD50 is the same as the 50% effective dose (ED50) and the 50% curative dose (CD50). Samples of blood from the hearts of all animals that die and from half the mice that survive are cultured on brain-heart infusion agar. Animals that received a protective dosage of the test drug will be alive at 72 h, although they may appear moderately ill to very ill during the observation period. […] Most of these mice will die within 6 to 48 h. Those alive at 72 h will be considered long term survivors.
# (Compound numbers correspond to those in MIC tables; data reported for challenge with methicillin-susceptible S. aureus strain ATCC 13709.)
# [9] = ATCC13709, sc, read-out: Survivors
SMILES,MIC [1] [µg/mL],MIC (E. faecalis VanB(Van^R)) [µg/mL],MIC [2] [µg/mL],MIC (E. coli ATCC 25992) [µg/mL],MIC (P. aeruginosa ATCC 27853) [µg/mL],MIC (E. faecium ATCC 35667) [µg/mL],MIC [3] [µg/mL],MIC [4] [µg/mL],MIC (E. faecalis ATCC 29212) [µg/mL],MIC [5] [µg/mL],MIC (E. faecium VanA(Van^R)) [µg/mL],MIC [6] [µg/mL],MIC [7] [µg/mL],MIC (E. faecium A491(Amp^R)) [µg/mL],MIC (S. aureus ATCC 29213) [µg/mL],other results
"CC(=N)NCCSCc1cnccc1SC1=C(C(=O)O)N2C(=O)[C@@H](NC(=O)/C(=N\O)c3nc(N)sc3Cl)[C@H]2SC1 [Cmpd 54, (7R)-7-[(Z)-2-(2-amino-5-chlorothiazol-4-yl)-2-(hydroxyimino)acetamido]-3-(3-(N-acetamidinoyl)aminoethylthiomethylpyrid-4-ylthio)-3-cephem-4-carboxylate, trifluoroacetic acid salt]",2,0.25,2,8,> 32,0.5,2,0.25,0.13,1,1,2,0.25,8,0.25,
"NCC(=O)NCCSCc1cnccc1SC1=C(C(=O)O)N2C(=O)[C@@H](NC(=O)/C(=N\O)c3csc(N)n3)[C@H]2SC1 [Cmpd 24, (7R)-7-[(Z)-2-(aminothiazol-4-yl)-2-(hydroxyimino)acetamido]-3-[3-(glycyl)aminoethylthiomethylpyrid-4-ylthio]-3-cephem-4-carboxylate, trifluoroacetic acid salt]",8,0.5,8,8,> 32,2,8,1,0.25,4,4,4,1,> 32,1,
"CN[C@H](CC(C)C)C(=O)N[C@H]1C(=O)N[C@@H](CC(N)=O)C(=O)N[C@H]2C(=O)N[C@H]3C(=O)N[C@H](C(=O)N[C@H](C(=O)O)c4cc(O)cc(O)c4-c4cc3ccc4O)[C@H](O)c3ccc(c(Cl)c3)Oc3cc2cc(c3O[C@@H]2O[C@H](CO)[C@@H](O)[C@H](O)[C@H]2O[C@H]2C[C@](C)(N)[C@H](O)[C@H](C)O2)Oc2ccc(cc2Cl)[C@H]1O [Vancomycin, vancomycin, reference compound]",,,,,,,,,,,,,,,,"ED50 ([8]; ATCC13709, sc): 1.94 mg/kg; responders at 0.625 mg/kg [8, 9]: 20%; responders at 1.25 mg/kg [8, 9]: 20%; responders at 2.5 mg/kg [8, 9]: 40%; responders at 5 mg/kg [8, 9]: 100%; responders at 10 mg/kg [8, 9]: 100%"
"N=CNCCSCc1cnccc1SC1=C(C(=O)O)N2C(=O)[C@@H](NC(=O)/C(=N\O)c3nc(N)sc3Cl)[C@H]2SC1 [Cmpd 31, (7R)-7-[(Z)-2-(2-amino-5-chlorothiazol-4-yl)-2-(hydroxyimino)acetamido]-3-(3-(N-formamidinoyl)aminoethylthiomethylpyrid-4-ylthio)-3-cephem-4-carboxylate, trifluoroacetic acid salt]",2,0.25,4,8,> 32,0.5,2,0.25,0.5,2,1,2,0.25,8,0.25,
"CN(C)C(=O)CNCCSCc1cnccc1SC1=C(C(=O)O)N2C(=O)[C@@H](NC(=O)/C(=N\O)c3nc(N)sc3Cl)[C@H]2SC1 [Cmpd 61, (7R)-7-[(Z)-2-(2-amino-5-chlorothiazol-4-yl)-2-(hydroxyimino)acetamido]-3-(3-(N,N-dimethylcarboxamidomethylaminoethylthiomethyl)pyrid-4-ylthio)-3-cephem-4-carboxylate, trifluoroacetic acid salt]",4,0.25,8,16,> 32,1,4,1,0.25,4,2,4,1,16,1,
"CNCC(=O)NCCSCc1cnccc1SC1=C(C(=O)O)N2C(=O)[C@@H](NC(=O)/C(=N\O)c3csc(N)n3)[C@H]2SC1 [Cmpd 18, (7R)-7-[(Z)-2-(aminothiazol-4-yl)-2-(hydroxyimino)acetamido]-3-[3-(N-methylglycyl)aminoethylthiomethylpyrid-4-ylthio]-3-cephem-4-carboxylate, trifluoroacetic acid salt]",,0.5,8,8,> 32,2,8,1,0.25,4,2,8,1,> 32,1,"responders at 0.3125 mg/kg ([8]; ATCC13709, Dose 0.3125 mg/kg, SC, read-out: Survivors): 30%; responders at 0.625 mg/kg ([8]; ATCC13709, Dose 0.625 mg/kg, SC, read-out: Survivors): 20%; responders at 1.25 mg/kg ([8]; ATCC13709, Dose 1.25 mg/kg, SC, read-out: Survivors (converted)): 20%; responders at 2.5 mg/kg ([8]; ATCC13709, Dose 2.5 mg/kg, SC, read-out: Survivors): 20%; responders at 5 mg/kg ([8]; ATCC13709, Dose 5 mg/kg, SC, read-out: Survivors): 60%; ED50 ([8]; ATCC13709, SC, two equal doses, IP challenge, read-out: ED50): 4.44 mg/kg"
